Measurements as given in patent publication US20050158425A1, “Thin mouthfeel calcium-fortified beverage containing calcium lactate gluconate citrate” (PURAC BIOCHEM BV, priority 2003, published 2005).

Assays:
[1] = Dissolution rate of calcium-fortified beverages by conductivity; type: physicochemical; conditions: 20° C.
Protocol: The dissolution rates of calcium lactate gluconate (ratio Ca lactate:Ca gluconate 80/20) and calcium lactate gluconate citrate (in a ratio calcium lactate:calcium gluconate:calcium citrate of 12.7:47.8:39.5) beverages were determined by measuring the conductivity and calculating the dissolution rate from the conductivity indices. Said beverages contained 10, and 30% R.D.I respectively in water at 20° C., 30% in apple juice at 20° C. and 10% in cranberry juice at 20° C.

[2] = Hygroscopicity of powdered samples; type: physicochemical; conditions: for water pick up (hygroscopicity): 20° C., 60% relative humidity, 21 days, powdered sample; for state of powdered sample (hygroscopicity): 35° C., 70% relative humidity
Protocol: The hygroscopicities of powdered samples of calcium lactate gluconate citrate (in a ratio calcium lactate:calcium gluconate:calcium citrate of 12.7:47.8:39.5) and calcium lactate gluconate (lactate/gluconate ratio 20/80) were measured at 20° C. at 60% relative humidity and at 35° C. at 70% relative humidity. At 20° C. at 60% relative humidity both samples hardly pick up any water (about 1%) for 21 days.

SMILES	Dissolution time in seconds (at conductivity 99.5) ([1]; Apple juice (30% RDI)) [s]	Dissolution time in seconds (at conductivity 99.5) ([1]; Cranberry juice (10% RDI)) [s]	Dissolution time in seconds (at conductivity 99.5) ([1]; Water (10% RDI)) [s]	water pick up (hygroscopicity) [2]	state of powdered sample (hygroscopicity) [2]	hygroscopicity ([2]; at increased temperatures)
CC(O)C(=O)[O-].O=C([O-])[C@H](O)[C@@H](O)[C@H](O)[C@H](O)CO.[Ca+2] [Calcium lactate gluconate, calcium lactate gluconate]	25	34	35			
CC(O)C(=O)[O-].O=C([O-])[C@H](O)[C@@H](O)[C@H](O)[C@H](O)CO.[Ca+2] [calcium lactate gluconate (20/80), calcium lactate gluconate]				about 1%	completely liquefied within 2 days	
CC(O)C(=O)O.O=C(O)[C@H](O)[C@@H](O)[C@H](O)[C@H](O)CO.O=C([O-])CC(O)(CC(=O)[O-])C(=O)O.[Ca+2] [calcium lactate gluconate citrate]	30	27	23	about 1%	still had the powdered structure and appeared unchanged after 20 days	very low hygroscopicity
